Laboratory results as given in patent publication US20250115569A1, “SULFONAMIDE COMPOUNDS FOR THE TREATMENT OF NEUROLOGICAL CONDITIONS” (LARIO THERAPEUTICS LIMITED, priority 2021, published 2025).

Columns and labels:
Assay type in all cases: cell-based
Cav2.3 [1] = biological target: T1, Cav2.3 (Homo sapiens, UniProt Q15878); test: Whole-cell patch clamp assay (QPatch) in HEK-293 T-Rex/Kir2.1/Cav2.3e-β4-α2δ1 cells; conditions: QPatch 16X, room temperature, mean ± S.E, read-out: Cav2.3 (pIC50) (converted)
Experimental: HEK-293 T-Rex/Kir2.1/Cav2.3e-β4-α2δ1 cells were seeded 96 hours before experiment and doxycycline at 0.2 μg/mL was added 24 hours before experiment. Just before the experiments cells were washed twice with D-PBS w/o Ca^2+/Mg^2+ and gently detached from the flask with Detachin. Cells were then re-suspended in the suspension solution (25 mL EX-CELL ACF CHO medium; 0.25 mL of 100× Penicillin/Streptomycin) and placed on the Automated Patch-clamp platform (QPatch 16X).
Standard whole-cell voltage clamp experiments were performed at room temperature using the single hole technology and the following intracellular and extracellular solutions (ICS and ECS, respectively) were used. ICS (mM): CsF 60, CsCl 50, NaCl 10, EGTA 20, BAPTA 5, HEPES 10, NaGTP 0.3, MgATP 5 (pH 7.2; ECS (mM): NMDG-Cl 120, BaCl2 20, HEPES 10, EGTA 7 (pH 7.4). After establishment of the seal and the passage in the whole-cell configuration, the Cav2.3 dependent current was evoked by challenging the cells with the following voltage protocol: the plasma membrane was held at −80 mV then a 50 ms-long depolarizing pulse at 0 mV, followed by a 50 ms-long hyperpolarizing pulse at −100 mV were applied and finally the plasma membrane was held back to −80 mV. This voltage protocol was applied every 10 seconds. Cav2.3 dependent current was first measured in control condition (vehicle, 0.1% DMSO), in the presence of increasing concentration of the compound under investigation and finally SNX 482 was added to fully block any R-type Cav2.3 dependent current.
For data collection, the Sophion proprietary software was used while the analysis was performed off-line using Excel and GraphPad Prism. The inward current (Area Under Curve) measured during each depolarizing pulse was normalized to cell membrane capacitance (Cm) to obtain the average inward current density in each condition (control, compound under investigation and SNX 482). Then, the inhibitory effect of the compound under investigation was evaluated as % of the remaining inward current, normalized to the internal control. […] All data were expressed as mean±S.E

Human Cav2.3 channel = Human Cav2.3 channel calcium-influx assay; conditions: Fluo8 fluorescence, HEK-293 T-Rex/Kir2.1/Cav2.3e cells, without pluronic acid
In short: (§1)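 Signal = peak fluorescence (5–130 s) minus baseline (1–2 s), normalized to neutral (0) and inhibitor (−100) controls as % effect. Depolarization used final 20 mM KCl, 130 mM NaCl, 2 mM CaCl2, after 3 min RT compound exposure (30 μM top, half-log, 8 points, 0.3% DMSO) in doxycycline-induced HEK-293 T-Rex/Kir2.1/Cav2.3e-β4-α2δ1 cells with Fluo8 NW.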

Cav2.3 [2] = biological target: T1, Cav2.3; test: Human Cav2.3 channel calcium-influx assay; conditions: Fluo8 fluorescence, HEK-293 T-Rex/Kir2.1/Cav2.3e cells, without pluronic acid, read-out: Cav2.3 (pIC50) (converted)
In short: as §1

T1 sequence (Q15878 whole entry, looked up): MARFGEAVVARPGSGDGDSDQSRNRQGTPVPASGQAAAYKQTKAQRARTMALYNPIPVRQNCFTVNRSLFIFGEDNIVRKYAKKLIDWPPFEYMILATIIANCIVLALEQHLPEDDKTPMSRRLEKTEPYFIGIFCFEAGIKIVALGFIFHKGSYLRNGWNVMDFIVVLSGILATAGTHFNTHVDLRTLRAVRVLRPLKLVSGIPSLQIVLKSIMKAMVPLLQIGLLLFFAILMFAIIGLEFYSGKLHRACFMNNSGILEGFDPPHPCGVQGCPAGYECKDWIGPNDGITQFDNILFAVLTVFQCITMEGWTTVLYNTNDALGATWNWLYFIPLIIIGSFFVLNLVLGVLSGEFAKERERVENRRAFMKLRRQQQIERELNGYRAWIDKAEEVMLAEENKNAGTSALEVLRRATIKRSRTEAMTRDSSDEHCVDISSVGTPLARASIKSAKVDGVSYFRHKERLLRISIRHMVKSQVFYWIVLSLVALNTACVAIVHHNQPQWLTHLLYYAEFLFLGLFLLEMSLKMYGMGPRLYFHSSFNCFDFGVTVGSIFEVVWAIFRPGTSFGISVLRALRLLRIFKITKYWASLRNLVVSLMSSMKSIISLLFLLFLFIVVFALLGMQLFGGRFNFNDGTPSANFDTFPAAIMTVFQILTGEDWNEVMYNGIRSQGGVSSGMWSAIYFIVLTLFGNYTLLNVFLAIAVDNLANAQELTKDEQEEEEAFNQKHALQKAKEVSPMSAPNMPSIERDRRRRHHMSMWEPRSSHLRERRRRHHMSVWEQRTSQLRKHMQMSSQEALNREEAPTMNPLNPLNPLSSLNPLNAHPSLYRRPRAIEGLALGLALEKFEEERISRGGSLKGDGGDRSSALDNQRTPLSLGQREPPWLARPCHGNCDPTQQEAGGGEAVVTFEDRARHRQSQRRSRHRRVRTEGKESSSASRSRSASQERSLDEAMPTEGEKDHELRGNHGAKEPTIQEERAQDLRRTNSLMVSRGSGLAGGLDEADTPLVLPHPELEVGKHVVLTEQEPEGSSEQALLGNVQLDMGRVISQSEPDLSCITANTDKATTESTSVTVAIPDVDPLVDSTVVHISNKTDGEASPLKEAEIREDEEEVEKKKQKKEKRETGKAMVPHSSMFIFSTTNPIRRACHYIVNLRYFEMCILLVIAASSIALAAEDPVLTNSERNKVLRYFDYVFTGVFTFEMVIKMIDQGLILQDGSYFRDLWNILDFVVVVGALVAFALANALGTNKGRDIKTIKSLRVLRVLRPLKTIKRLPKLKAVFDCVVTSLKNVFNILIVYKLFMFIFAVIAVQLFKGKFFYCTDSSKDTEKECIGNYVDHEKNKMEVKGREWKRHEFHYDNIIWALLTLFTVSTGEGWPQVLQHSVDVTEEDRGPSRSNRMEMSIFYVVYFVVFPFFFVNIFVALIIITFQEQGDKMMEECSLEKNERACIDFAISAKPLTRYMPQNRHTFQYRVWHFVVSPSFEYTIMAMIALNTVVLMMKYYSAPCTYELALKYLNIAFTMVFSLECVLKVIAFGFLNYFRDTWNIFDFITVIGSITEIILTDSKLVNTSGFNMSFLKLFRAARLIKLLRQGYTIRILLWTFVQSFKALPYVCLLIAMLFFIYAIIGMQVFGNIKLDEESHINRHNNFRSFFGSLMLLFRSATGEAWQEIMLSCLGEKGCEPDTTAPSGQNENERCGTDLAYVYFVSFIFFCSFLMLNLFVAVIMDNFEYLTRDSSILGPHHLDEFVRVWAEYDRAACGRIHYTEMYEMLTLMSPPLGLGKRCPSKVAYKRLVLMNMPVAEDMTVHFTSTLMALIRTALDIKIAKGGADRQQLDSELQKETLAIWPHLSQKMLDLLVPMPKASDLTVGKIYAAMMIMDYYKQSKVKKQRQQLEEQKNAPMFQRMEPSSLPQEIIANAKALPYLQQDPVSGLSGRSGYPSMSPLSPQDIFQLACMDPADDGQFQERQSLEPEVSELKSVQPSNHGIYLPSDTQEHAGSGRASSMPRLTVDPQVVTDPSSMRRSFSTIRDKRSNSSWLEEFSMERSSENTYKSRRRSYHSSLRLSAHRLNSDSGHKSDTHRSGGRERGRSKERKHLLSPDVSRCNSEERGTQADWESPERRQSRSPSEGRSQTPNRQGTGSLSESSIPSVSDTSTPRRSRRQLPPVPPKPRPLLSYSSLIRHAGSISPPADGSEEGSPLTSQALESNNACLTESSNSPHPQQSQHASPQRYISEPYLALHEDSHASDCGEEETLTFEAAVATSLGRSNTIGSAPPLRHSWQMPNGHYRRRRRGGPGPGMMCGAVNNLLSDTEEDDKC

| IC50 (Cav2.3 [1]) [µM] | Cav2.3 (pIC50) (Human Cav2.3 channel) | IC50 (Cav2.3 [2]) [µM] | Structure (SMILES) |
| --- | --- | --- | --- |
| 1.91 | 5.16 | – | CCN([C@@H](c1ccc(F)cc1)C(F)(F)F)S(=O)(=O)c1ccc(C)s1 [Example 9, (S)—N-ethyl-5-methyl-N-(2,2,2-trifluoro-1-(4-fluorophenyl)ethyl)thiophene-2-sulfonamide] |
| 0.38 | – | 0.178 | CN([C@H](c1ccc(Cl)cc1)C(F)(F)F)S(=O)(=O)c1ccc2nccn2c1 [Example 178, (R)—N-(1-(4-chlorophenyl)-2,2,2-trifluoroethyl)-N-methylimidazo[1,2-a]pyridine-6-sulfonamide] |
| 0.0646 | 7.50 | – | CCN([C@H](c1ccc(F)cc1)C(F)(F)F)S(=O)(=O)c1ccn2ccnc2c1 [Example 136, (R)—N-ethyl-N-(2,2,2-trifluoro-1-(4-fluorophenyl)ethyl)imidazo[1,2-a]pyridine-7-sulfonamide] |
| 0.295 | 7.23 | – | CN([C@H](c1ccc(C(F)(F)F)cc1)C(F)(F)F)S(=O)(=O)c1cncnc1 [Example 172, (R)—N-methyl-N-(2,2,2-trifluoro-1-(4-(trifluoromethyl)phenyl)ethyl)pyrimidine-5-sulfonamide] |
| 0.0427 | – | – | CCN([C@H](c1ccc(F)cc1)C(F)(F)F)S(=O)(=O)c1cncc(F)c1 (stereo in doubt) [Example 219, N-ethyl-5-fluoro-N-(2,2,2-trifluoro-1-(4-fluorophenyl)ethyl)pyridine-3-sulfonamide] |
| 0.141 | – | 0.0302 | CN([C@H](c1ccc(Cl)cc1)C(F)(F)F)S(=O)(=O)c1cncc(F)c1 [Example 220, (R)—N-(1-(4-chlorophenyl)-2,2,2-trifluoroethyl)-5-fluoro-N-methylpyridine-3-sulfonamide] |
| 0.0724 | – | 0.0355 | CN([C@H](c1ccc(C(F)(F)F)cc1)C(F)(F)F)S(=O)(=O)c1cncc(C#N)c1 [Example 68, (R)-5-Cyano-N-methyl-N-(2,2,2-trifluoro-1-(4-(trifluoromethyl)phenyl)ethyl)pyridine-3-sulfonamide] |
| 0.562 | 7.01 | – | CCN([C@H](c1ccc(F)cc1)C(F)(F)F)S(=O)(=O)c1cnc(C)nc1 [Example 77, (R)—N-ethyl-2-methyl-N-(2,2,2-trifluoro-1-(4-fluorophenyl)ethyl)pyrimidine-5-sulfonamide] |
| 0.708 | – | 0.794 | CCN(C(c1ccc(F)cc1)C(F)(F)F)S(=O)(=O)CC1CCOCC1 (stereo not shown) [Example 20, N-ethyl-1-(tetrahydro-2H-pyran-4-yl)-N-(2,2,2-trifluoro-1-(4-fluorophenyl)ethyl)methanesulfonamide] |
| 0.447 | 5.30 | – | CCN([C@@H](c1ccc(F)cc1)C(F)(F)F)S(=O)(=O)c1ccc(C#N)s1 [Example 4, (S)-5-cyano-N-ethyl-N-(2,2,2-trifluoro-1-(4-fluorophenyl)ethyl)thiophene-2-sulfonamide] |
| 0.0676 | 6.95 | – | CCN([C@H](c1ccc(F)cc1)C(F)(F)F)S(=O)(=O)c1cncc(N2CCOCC2)c1 [Example 96, (R)—N-ethyl-5-morpholino-N-(2,2,2-trifluoro-1-(4-fluorophenyl)ethyl)pyridine-3-sulfonamide] |
| 0.148 | 7.20 | – | CCN(C(c1ccc(F)cc1)C(F)(F)F)S(=O)(=O)c1cncnc1 [Example 133, (R)—N-ethyl-N-(2,2,2-trifluoro-1-(4-fluorophenyl)ethyl)pyrimidine-5-sulfonamide] |
| 2.57 | 5.41 | – | Cc1ccc(S(=O)(=O)N(C)[C@H](c2ccc(F)cc2)C(F)(F)F)s1 [Example 13, (R)—N,5-dimethyl-N-(2,2,2-trifluoro-1-(4-fluorophenyl)ethyl)thiophene-2-sulfonamide] |
| 0.132 | – | 0.0257 | CN([C@H](c1ccc(Cl)cc1)C(F)(F)F)S(=O)(=O)c1cncc(C#N)c1 [Example 171, (R)—N-(1-(4-chlorophenyl)-2,2,2-trifluoroethyl)-5-cyano-N-methylpyridine-3-sulfonamide] |
| 0.302 | 6.92 | – | CCN([C@H](c1ccc(F)cc1)C(F)(F)F)S(=O)(=O)C1CCOCC1 [Example 63, (R)—N-ethyl-N-(2,2,2-trifluoro-1-(4-fluorophenyl)ethyl)tetrahydro-2H-pyran-4-sulfonamide] |
| – | – | 2.19 | CCN([C@H](c1ccc(F)cc1)C(F)(F)F)S(=O)(=O)c1ccc2nnc(C)n2n1 [Example 168, (R)—N-ethyl-3-methyl-N-(2,2,2-trifluoro-1-(4-fluorophenyl)ethyl)-[1,2,4]triazolo[4,3-b]pyridazine-6-sulfonamide] |
| – | – | 0.24 | CN([C@H](c1ccc(Cl)cc1)C(F)(F)F)S(=O)(=O)c1ccn2ccnc2c1 [Example 194, (R)—N-(1-(4-chlorophenyl)-2,2,2-trifluoroethyl)-N-methylimidazo[1,2-a]pyridine-7-sulfonamide] |
| – | – | 6.17 | Cc1ccc([C@@H](N(C)S(=O)(=O)c2cn3ccncc3n2)C(F)(F)F)cc1 [Example 197, (R)—N-methyl-N-(2,2,2-trifluoro-1-(p-tolyl)ethyl)imidazo[1,2-a]pyrazine-2-sulfonamide] |
| 1.48 | 6.14 | – | CN(C(c1ccc(F)cc1)C(F)(F)F)S(=O)(=O)c1ccc(C#N)s1 (stereo not shown) [Example 2, 5-cyano-N-methyl-N-(2,2,2-trifluoro-1-(4-fluorophenyl)ethyl)thiophene-2-sulfonamide] |
| 1.35 | 6.56 | – | CCN([C@H](c1ccc(F)cc1)C(F)(F)F)S(=O)(=O)c1ccc(C#N)s1 [Example 5, (R)-5-cyano-N-ethyl-N-(2,2,2-trifluoro-1-(4-fluorophenyl)ethyl)thiophene-2-sulfonamide] |
| – | – | 0.468 | CCN([C@H](c1ccc(C(F)(F)F)c(C)c1)C(F)(F)F)S(=O)(=O)c1cncc(C#N)c1 [Example 268, (R)-5-cyano-N-ethyl-N-(2,2,2-trifluoro-1-(3-methyl-4-(trifluoromethyl)phenyl)ethyl)pyridine-3-sulfonamide] |
| – | – | 0.174 | CCN([C@H](c1ccc(F)cc1)C(F)(F)F)S(=O)(=O)c1ccc2ncn(C)c2c1 [Example 164, (R)—N-ethyl-1-methyl-N-(2,2,2-trifluoro-1-(4-fluorophenyl)ethyl)-1H-benzo[d]imidazole-6-sulfonamide] |
| – | – | 0.794 | COc1ccc([C@@H](N(C)S(=O)(=O)c2ccc3nccn3c2)C(F)(F)F)cc1 [Example 203, (R)—N-methyl-N-(2,2,2-trifluoro-1-(4-methoxyphenyl)ethyl)imidazo[1,2-a]pyridine-6-sulfonamide] |
| 0.457 | – | 0.145 | CN([C@H](c1ccc(Cl)cc1)C(F)(F)F)S(=O)(=O)c1ccn2ncnc2c1 [Example 191, (R)—N-(1-(4-chlorophenyl)-2,2,2-trifluoroethyl)-N-methyl-[1,2,4]triazolo[1,5-a]pyridine-7-sulfonamide] |
| – | – | 0.245 | Cc1ccc([C@@H](N(C)S(=O)(=O)c2cncc(F)c2)C(F)(F)F)cc1 [Example 222, (R)-5-fluoro-N-methyl-N-(2,2,2-trifluoro-1-(p-tolyl)ethyl)pyridine-3-sulfonamide] |
| – | – | 0.105 | CN([C@H](c1ccc(OC(F)(F)F)cc1)C(F)(F)F)S(=O)(=O)c1cncc(C#N)c1 [Example 241, (R)-5-cyano-N-methyl-N-(2,2,2-trifluoro-1-(4-(trifluoromethoxy)phenyl)ethyl)pyridine-3-sulfonamide] |
